Data reported in ChEMBL document CHEMBL5729292, “Bromodomain inhibitor compound and use thereof” (2022).

Molecular target: Bromodomain-containing protein 4 (Homo sapiens, UniProt O60885)
Test: Inhibitory Activity Assay of BRD4 Small Molecule Compounds: AlphaScreen kit (Perkin Elmer) was used to detect effect of the compounds on binding of BRD4 bromodomain to acetylated histone H4 polypeptide. […] Each of fusion proteins containing (His)6tag can be recognized and bound by Ni2+. […] The donor microbeads were coated with streptavidin and can bind to biotinylated acetylated H4 polypeptide. The acceptor microbeads were coated with Ni2+ ions and can bind to the BD1 protein with (His)6tag. When the BD1 protein recognized the acetylated H4 polypeptide, the donor microbeads and the acceptor microbeads can be brought closer to a certain distance. Within this range, the donor microbeads can produce singlet oxygen after being irradiated with a 680 nm excitation light, and transfer the singlet oxygen to the acceptor microbeads. After a series of cascade chemical reactions, the acceptor microbeads will generate an emission wave of 520-620 nm, which in turn can be detected a signal. In this experiment, the test system was 20 μL, and the compound needs to be diluted in buffer 1 (20 mM HEPES pH 7.4, 150 mM NaCl, 1 mM dithiothreitol). First, a solution of 20 mM compound was consecutively diluted twice, each in 10 times, totally in 100 times to a concentration of 200 μM. […] The recombinant BD1 protein solution and the acetylated histone H4 polypeptide were diluted in the buffer 2 (20 mM HEPES pH 7.4, 150 mM NaCl, 0.01% Triton X-100, 0.1% bovine serum protein (w/v, Sigma), 1 mM dithiothreitol) to 100 nM and 100 nM respectively, to obtain a 8×BD1 protein working solution and a 4× acetylated histone H4 polypeptide working solution. The donor microbeads and the acceptor microbeads are diluted together in the buffer 2, both in the ratio of 1:100, to obtain a 2× microbead mixed working solution. The plate was added with 2.5 μL of BD1 protein working solution and incubated with the compound for 20 min at room temperature, and then added with 5 μL of acetylated histone H4 polypeptide working solution and incubated at room temperature for 5 min, and finally added with 10 μL of microbead mixed working solution and incubated at room temperature for 60 min. […] IC50 values of the compounds at different concentrations for inhibiting the binding of BD1 protein to acetylated H4 polypeptide were calculated by fitting using GraphPad Prism 5.0 software.

Row | IC50 | Structure (SMILES)
1 | 134 nM | Cc1cc(-c2cc(S(C)(=O)=O)ccc2Oc2ccccc2)n2cc[nH]c(=O)c12
2 | 76.9 nM | Cc1cc(-c2cc(NS(C)(=O)=O)ccc2Oc2ccccc2)n2c1C(=O)NCC2
3 | 114 nM | Cc1cc(-c2cc(NS(C)(=O)=O)ccc2Oc2ccccc2)n2cn[nH]c(=O)c12
4 | 434 nM | Cc1cc(-c2cc(NS(C)(=O)=O)ccc2Oc2ccccc2)n2nc[nH]c(=O)c12
5 | 119 nM | Cc1ccccc1Oc1ccc(NS(C)(=O)=O)cc1-c1cc(C)c2c(=O)[nH]ccn12
6 | 4.5 nM | Cc1cc(-c2cc(CS(C)(=O)=O)ccc2Oc2ccc(F)cc2F)n2cn[nH]c(=O)c12
7 | 131 nM | CCS(=O)(=O)c1ccc(Oc2ccccc2C)c(-c2cc(C)c3c(=O)[nH]ccn23)c1
8 | 910 nM | Cc1cc(-c2ccccc2Oc2ccccc2)n2nc[nH]c(=O)c12
9 | 471 nM | Cc1cc(-c2cc(NS(C)(=O)=O)ccc2OCC2CC2)n2cn[nH]c(=O)c12
10 | 138 nM | Cc1cc(-c2cc(CS(C)(=O)=O)ccc2Nc2ccccc2)n2cc[nH]c(=O)c12
11 | 905 nM | Cc1cc(-c2ccccc2Oc2ccccc2)n2cc[nH]c(=O)c12
12 | 132 nM | Cc1cc(-c2cc(S(C)(=O)=O)ccc2Oc2ccc(F)cc2F)n2cc[nH]c(=O)c12
13 | 124 nM | Cc1cc(-c2cc(NS(C)(=O)=O)ccc2OC2CCOCC2)n2cn[nH]c(=O)c12
14 | 92.6 nM | Cc1cc(-c2cc(NS(C)(=O)=O)ccc2Oc2ccc(F)cc2F)n2cn[nH]c(=O)c12
15 | 161 nM | Cc1cc(-c2cc(CS(C)(=O)=O)ccc2Nc2ccc(F)cc2F)n2cc[nH]c(=O)c12
